Peptide text beside a SMILES is read from it. * marks the point of attachment. Cbz = O=C(OCc1ccccc1)*; CH2F = FC*
Legend:
cathepsin B GFPspark = molecular target: T1, cathepsin B GFPspark (Homo sapiens, UniProt P07858); assay: AbRGT FRET imaging / acceptor photobleaching, cathepsin B GFPspark in HEK-293 cells; assay type: cell-based
T1 construct: GFPspark (C); host or cells: HEK-293
Experimental: FIG. 20 depicts confocal images of HEK-293 cells in GFP, FRET and Rh channel Cathepsin B GFPspark transfected HEK-293 cells were treated with STS (1 μM) for 4 h and labelled (a) (i) with or (a) (iv) without probe 1. Cells were pre-treated with (a) (ii) Z-VAD-FMK (50 μM) or (a) (iii) E-64 (50 μM) inhibitor 1 h before the probe 1 labelling. (b) Quantification of the change in GFPS fluorescence intensity after rhodamine photobleaching in both unbleached control region and rhodamine bleached region (ROI), using acceptor photo-bleaching method. Error bar represents the s.e.m for n=10 cells (*P<0.00001). Scale bar, 10 μm. a.u., arbitrary units.
Plasmids and transient transfection: GFPspark tagged plasmids; caspase-3 GFPspark tag (Cat: HG10050-ACG), caspase-7 GFPspark tag (HG10049-ACG), caspase-8 GFPspark (HG10078-ACG), caspase-9 GFPspark (HG11151-ACG) and cathepsin B GFPspark (HG10483-ACG) were procured from Sino Biological. For transfection, cells were seeded in a 6-well plate at a density of 0.4 million cells/well. At 60-70% confluency, cells were transiently transfected for 24 h at 37° C. with 1 μg of the GFPspark tagged plasmid DNA construct mixed with 5 μL of Lipofectamine 2000 (Invitrogen) according to the manufacturer's instructions. 24 h post-transfection, cells were visualized under the GFP filter for GFPspark expression under fluorescence microscope at 10× magnification.
Labelling of active caspases in apoptotic cells with FABP: After 24 h of transfection, cells were treated with STS (1 μM) drug or TRAIL (1 μg/ml) for apoptotic induction and incubated for 2, 4, 6 and 8 h at 37° C. in a humidified atmosphere of 5% CO2/95% air. Cells were gently scraped off from the surface at the end of apoptotic induction and centrifuged at 3000 rpm for 5 min. The cell pellet was resuspended in 300 μL of fresh DMEM containing 1 μM of probe for probe 2 and incubated for additional 2 h at 37° C. in a humidified atmosphere of 5% CO2. Cells were again centrifuged at 3000 rpm for 5 mins, and the supernatant was decanted. Cells were washed with 1×PBS, thrice finally resuspended in 20 μL of 1×PBS. The cell suspension was put on a slide, and a coverslip was placed over it. It was left for air drying. Slides were then imaged for GFP, FRET and rhodamine fluorescence signals under confocal microscopy.
Inhibitor assay: Cells were pre-treated with 50 μM of Z-VAD-FMK or Q-VD-OPh or E-64 inhibitor 1 h before probe 1 labelling and incubated for 1 h at 37° C. in a humidified atmosphere of 5% CO2. Cells were gently scraped off from the surface at the end of inhibitor treatment and centrifuged at 3000 rpm for 5 min Cells were then labelled with the probe 1 as described in the previous section.
Fluorescence imaging studies, FRET procedure: Images were collected on Zeiss LSM710 confocal microscope with 25 mW argon laser using Zen10 software. The laser was tuned to lines at 488 nm (excitation laser for GFPspark) and 561 nm (excitation laser for rhodamine) Cells were examined with a 40× 1.3 NA Zeiss oil immersion objective and 2.4× zoom. Images were collected in the three channels; GFP channel, argon laser tuned at 488 nm with 2% laser intensity and fluorescence emission was collected in emission range of 490-550 nm; rhodamine channel, argon laser tuned to 561 nm laser with 2% laser intensity and fluorescence emission was collected in range 550-650 nm and FRET channel with excitation laser of GFPSPARK channel and emission range of rhodamine channel. […]

Jurkat cell lysate = assay: In-gel fluorescence assay of off-target labelling in Jurkat cells; assay type: cell-based; details: Jurkat cell lysate 2 μg/μL, probe 1 μM
Experimental: FIG. 5 depicts cellular off-target labelling of the probe 1 shown in Jurkat cells 2.5 million Jurkat cells were incubated with 1 μM probe 1 in the (b) presence or (c) the absence of STS (1 μM) for 6 h. Cells are incubated (a) without and (d) with the probe 1 and STS. Cells comprising labelled enzymes were lysed and analyzed by 12% SDS-PAGE followed by scanning for rhodamine fluorescence (Ex: 561 nm, Em: 605 nm) with a flat-bed laser scanner.
To rule out that the obtained FRET signal in [FIG. 2b (i)] is not because of random physical interaction between GFPspark and rhodamine dye, MCF-7 cells were transfected with a plasmid encoding for enhanced green fluorescent protein (EGFP). EGFP transfected MCF-7 cells were treated with STS (1 μM) for 4 h, labelled with the probe 1. […] In-gel fluorescence assay was also performed to validate the multiple off-targets labelling of probe 1 which has also been shown in the previous reports. […] The calculated FRET efficiency for (n=15 cells) is 35±1%. […] Caspase-3 activation was also monitored using probe 2 as fABP which is different from probe 1 in terms of peptide recognition sequence; DEVD in exchange for VAD as DEVD peptide sequence is more specific for caspases as compared to VAD. Probe 2 yielded a similar pattern of fluorescence signal in GFPspark, FRET and Rh channel as that of probe 1 [FIG. 7(a)]. The calculated FRET efficiency was 35% [FIG. 7(b)]. […]

[1] = HEK-293, inhibitor 50 μM 1 h before probe 1 labelling, STS 4 h

effect of inhibitor on FRET signal (cathepsin B GFPspark; [1])	Molecule	signal in Rh channel in presence of inhibitor (cathepsin B GFPspark; [1])	FRET efficiency (cathepsin B GFPspark; HEK-293, STS 1 μM 4 h, probe 1 μM 2 h, n=10 cells) [%]	off-target labelling, bands on SDS-PAGE gel upon rhodamine excitation (Jurkat cell lysate)
completely abolished	COC(=O)C[C@H](NC(=O)[C@H](C)NC(=O)[C@@H](NC(=O)OCc1ccccc1)C(C)C)C(=O)CF [Z-VAD-FMK] (Cbz-Val-Ala-Asp(OMe)-CH2F)	less intense fluorescence signal was still retained	–	–
–	Rhodamine-VAD-fluoromethyl ketone [probe 1]	–	37±1	multiple bands

— patent US11834698B2, “Process for determining enzyme activity in a cell by activity-based reporter gene technology (ABRGT)” (INDIAN INSTITUTE OF SCIENCE EDUCATION AND RESEARCH, priority 2018, dated 2023)
